Reference: the NIST ThermoML archive (doi:10.1016/j.jct.2012.02.011)

Test: relative permittivity at various frequencies (dimensionless); xn = mol fraction of the nth substance listed
Conditions: 101.33 kPa, Liquid, Frequency=3 MHz, OH-301

CCCCOCCO [2-butoxyethan-1-ol] + O=[N+]([O-])c1ccccc1
relative permittivity
Conditions	293.15 K	298.15 K	303.15 K	308.15 K	313.15 K
x2 = 0	9.78	9.35	8.88	8.39	7.91
x2 = 0.05	12.73	11.87	11.04	10.26	9.54
x2 = 0.0999	15.28	14.32	13.35	12.37	11.45
x2 = 0.2003	19.6	18.58	17.59	16.63	15.76
x2 = 0.3	23.44	22.39	21.39	20.42	19.59
x2 = 0.4	27	25.85	24.78	23.77	22.92
x2 = 0.5	30.19	28.96	27.82	26.74	25.84
x2 = 0.6	32.88	31.6	30.44	29.34	28.49
x2 = 0.7	34.91	33.59	32.5	31.36	30.53
x2 = 0.7493	35.71	34.34	33.12	32.06	31.22
x2 = 0.8	36.29	34.85	33.69	32.47	31.69
x2 = 0.8506	36.65	35.21	33.91	32.79	31.92
x2 = 0.9	36.77	35.26	33.96	32.85	32.04
x2 = 0.9499	36.52	35.09	33.86	32.84	32.1

CCOCCO [2-ethoxyethan-1-ol] + O=[N+]([O-])c1ccccc1
relative permittivity
Conditions	293.15 K	298.15 K	303.15 K	308.15 K	313.15 K
x2 = 0	14.25	14.03	13.76	13.44	13.07
x2 = 0.0499	16.23	15.75	15.23	14.71	14.17
x2 = 0.0997	18.22	17.59	16.95	16.29	15.64
x2 = 0.2	21.92	21.16	20.41	19.67	18.98
x2 = 0.3002	25.24	24.4	23.54	22.77	22
x2 = 0.4001	28.2	27.24	26.32	25.46	24.66
x2 = 0.5	30.85	29.8	28.81	27.95	27.13
x2 = 0.6003	33.21	32.07	31.07	30.15	29.38
x2 = 0.7	34.94	33.75	32.71	31.81	31.04
x2 = 0.7491	35.66	34.39	33.29	32.33	31.52
x2 = 0.7996	36.11	34.77	33.6	32.6	31.76
x2 = 0.8504	36.37	35	33.73	32.69	31.81
x2 = 0.9001	36.43	34.99	33.69	32.64	31.79
x2 = 0.9456	36.26	34.87	33.66	32.67	31.9

CCCOCCO [2-propoxyethanol] + O=[N+]([O-])c1ccccc1
relative permittivity
Conditions	293.15 K	298.15 K	303.15 K	308.15 K	313.15 K
x2 = 0	11.76	11.5	11.19	10.91	10.62
x2 = 0.0497	14.29	13.73	13.13	12.57	12.02
x2 = 0.1008	16.55	15.87	15.15	14.52	13.88
x2 = 0.2	20.53	19.71	18.92	18.2	17.54
x2 = 0.3004	24.06	23.14	22.27	21.5	20.81
x2 = 0.4	27.18	26.2	25.26	24.45	23.7
x2 = 0.5	30.06	28.98	27.97	27.11	26.32
x2 = 0.6008	32.56	31.43	30.36	29.47	28.73
x2 = 0.6997	34.55	33.33	32.27	31.35	30.61
x2 = 0.7489	35.32	34.05	32.96	32.01	31.26
x2 = 0.8	35.94	34.57	33.43	32.48	31.69
x2 = 0.8499	36.33	34.95	33.75	32.73	31.91
x2 = 0.9004	36.49	35.1	33.86	32.83	32.03
x2 = 0.9488	36.3	34.95	33.8	32.85	32.14

O=[N+]([O-])c1ccccc1 [nitrobenzene] + COCCO
relative permittivity
Conditions	293.15 K	298.15 K	303.15 K	308.15 K	313.15 K
x1 = 0.0505	19.13	18.51	17.93	17.37	16.82
x1 = 0.1011	20.66	19.96	19.31	18.66	18.05
x1 = 0.2003	23.41	22.63	21.89	21.19	20.56
x1 = 0.3003	25.97	25.12	24.31	23.59	22.96
x1 = 0.4002	28.41	27.45	26.59	25.84	25.16
x1 = 0.4998	30.69	29.62	28.69	27.94	27.22
x1 = 0.5997	32.75	31.57	30.58	29.81	29.09
x1 = 0.7001	34.4	33.23	32.18	31.31	30.59
x1 = 0.752	35.1	33.87	32.8	31.91	31.17
x1 = 0.8004	35.62	34.35	33.24	32.3	31.54
x1 = 0.8491	36.03	34.74	33.57	32.61	31.8
x1 = 0.8974	36.21	34.89	33.72	32.76	32
x1 = 0.9502	36.26	34.94	33.8	32.88	32.2
x1 = 1	35.91	34.78	33.84	33.13	32.66
